ChEMBL document CHEMBL1159341, “Bistratamides E-J, modified cyclic hexapeptides from the Philippines ascidian Lissoclinum bistratum” (J Nat Prod, 2003)
≈ marks a conversion by molar mass, not a printed value.

Tested on: HCT-116
Assay: Cytotoxicity against human HCT116 cells
Format: functional, cell-based

| Compound | IC50 [µg/mL] |
| --- | --- |
| CC(C)[C@@H]1NC(=O)c2csc(n2)[C@H](C(C)C)NC(=O)c2csc(n2)[C@H](C(C)C)NC(=O)[C@H]2N=C1O[C@@H]2C [BISTRATAMIDE E] | 7.9 (≈ 14.4 µM) |
| CC(C)[C@@H]1NC(=O)[C@H]2N=C(O[C@@H]2C)[C@H](C(C)C)NC(=O)c2csc(n2)[C@H](C(C)C)NC(=O)[C@@H]2COC1=N2 [BISTRATAMIDE F] | 28 (≈ 52.6 µM) |
| Cc1oc2nc1C(=O)N[C@@H](C(C)C)c1nc(co1)C(=O)N[C@@H](C(C)C)c1nc(cs1)C(=O)N[C@H]2C(C)C [BISTRATAMIDE G] | 5 (≈ 9.46 µM) |
| Cc1oc2nc1C(=O)N[C@@H](C(C)C)c1nc(cs1)C(=O)N[C@@H](C(C)C)c1nc(cs1)C(=O)N[C@H]2C(C)C [BISTRATAMIDE H] | 1.7 (≈ 3.12 µM) |
| CC(C)[C@@H]1NC(=O)c2csc(n2)[C@H](C(C)C)NC(=O)c2coc(n2)[C@H](C(C)C)NC(=O)[C@H]([C@@H](C)O)NC1=O [BISTRATAMIDE I] | 9 (≈ 16.4 µM) |
| CC(C)[C@@H]1NC(=O)c2csc(n2)[C@H](C(C)C)NC(=O)c2csc(n2)[C@H](C(C)C)NC(=O)[C@H]([C@@H](C)O)NC1=O [BISTRATAMIDE J] | 1 (≈ 1.77 µM) |
